Some test systems named below: 786-0 renal; CCRF-CEM leukemia; COLO 205 colon; EKVX NSCLC; LOX IMVI melanoma; NCI-H226 lung; NCI-H460 lung; OVCAR-3 ovarian; OVCAR-4 ovarian; OVCAR-5 ovarian; UACC-62 melanoma; NCI/ADR-RES ovarian.
Holding throughout (experiment): DTP human tumour cell line panel, 48 h

This passage reports TGI results from PubChem BioAssay (NCI).

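Cells were grown in 96-well plates and exposed to each compound for 48 hours at five concentrations; endpoints were interpolated linearly between bracketing concentrations, or set to the highest concentration if not reached. TGI is the concentration that stops growth completely.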

As a reminder, the TGI is the concentration at which net growth stops. Read a low TGI as greater sensitivity of the cells. Turning to `CC(=O)CC1=C(OC(C)C)C2(OCCO2)C1O` (configuration not stated), the TGI with 786-0 renal, in the test with CCRF-CEM leukemia, in the test with COLO 205 colon, in the test with EKVX NSCLC, with LOX IMVI melanoma and in the test on NCI-H226 lung was greater than 100 µM in each case. For the same molecule, the TGI with NCI-H460 lung, with OVCAR-3 ovarian, in the test on OVCAR-4 ovarian, in the test with OVCAR-5 ovarian and with UACC-62 melanoma was greater than 100 µM in each case.
Turning to `CCOC(=O)c1cccc(NC(=O)CI)c1`, the concentration for total growth inhibition (TGI) in the test with 786-0 renal came out at 0.307 µM; with COLO 205 colon, 1.86 µM; in the test with EKVX NSCLC, 3.94 µM; in the test with NCI-H460 lung, 3.77 µM; with NCI/ADR-RES ovarian, 1.96 µM; in the test on OVCAR-3 ovarian, 0.759 µM. The values for the TGI in the test on OVCAR-4 ovarian, in the test on OVCAR-5 ovarian and in the test with UACC-62 melanoma were 3.02 µM, 3.07 µM and 1.87 µM, respectively.
As to `O=C(c1ccc(Cl)cc1)N(C(=S)OCCOc1ccccc1)c1ccccc1`, the TGI in the test on 786-0 renal stood at 40.1 µM; in the test on CCRF-CEM leukemia, 42.7 µM; in the test with COLO 205 colon it was 37.1 µM; in the test on EKVX NSCLC, 48.6 µM; with LOX IMVI melanoma, 36.1 µM; with NCI-H460 lung, 62.7 µM. The TGI is 76.3 µM with NCI/ADR-RES ovarian; 30.9 µM in the test on OVCAR-3 ovarian; 40.8 µM with OVCAR-4 ovarian; 36.4 µM in the test on OVCAR-5 ovarian; 35.1 µM in the test on UACC-62 melanoma.
Turning to `Cc1ccc(N(C)S(=O)(=O)c2ccccc2[N+](=O)[O-])cc1`, the TGI in the test with 786-0 renal, in the test with COLO 205 colon, with EKVX NSCLC, with LOX IMVI melanoma, with NCI-H226 lung and with NCI-H460 lung was greater than 100 µM throughout. In addition, the TGI in the test with NCI/ADR-RES ovarian, in the test on OVCAR-3 ovarian, with OVCAR-4 ovarian and with OVCAR-5 ovarian was greater than 100 µM throughout.
On to `CN(Cc1cnc2c(N)nc(N)nc2n1)c1ccc(Cl)cc1`, for which the TGI was greater than 100 µM in the test on CCRF-CEM leukemia; greater than 100 µM with COLO 205 colon; greater than 100 µM in the test on EKVX NSCLC; 32.5 µM with NCI-H226 lung; greater than 100 µM in the test with NCI-H460 lung; greater than 100 µM in the test on NCI/ADR-RES ovarian. Further, the concentration for total growth inhibition (TGI) with OVCAR-3 ovarian, in the test on OVCAR-5 ovarian and in the test on UACC-62 melanoma was greater than 100 µM in each case.
As for `O=C(CC(Cl)=C(Cl)Cl)c1ccccc1`, the total growth inhibition concentration (TGI) is 48 µM with 786-0 renal; 30.4 µM in the test on CCRF-CEM leukemia; 78.9 µM with COLO 205 colon; 32.1 µM in the test on LOX IMVI melanoma; 72.5 µM in the test on NCI-H226 lung; greater than 100 µM with NCI-H460 lung. The concentration for total growth inhibition (TGI) with NCI/ADR-RES ovarian was greater than 100 µM; with OVCAR-3 ovarian, 81.4 µM; in the test on OVCAR-4 ovarian it was greater than 100 µM; in the test on OVCAR-5 ovarian, greater than 100 µM; with UACC-62 melanoma, greater than 100 µM.
Take `COc1ccccc1C1c2cc3c(cc2OC(N2CCOCC2)C1C)OCO3` (configuration not stated): the TGI in the test on 786-0 renal was 42.2 µM; in the test with CCRF-CEM leukemia it was 34.7 µM; in the test with EKVX NSCLC, 89.6 µM; in the test on LOX IMVI melanoma, 35.2 µM; in the test on NCI-H460 lung, 40.7 µM; with NCI/ADR-RES ovarian, 61.6 µM. The total growth inhibition concentration (TGI) in the test on OVCAR-3 ovarian was 29.5 µM; in the test on OVCAR-5 ovarian, 41.1 µM; with UACC-62 melanoma, 35.5 µM.
Take `O=C1CC(=O)NC(=NNS(=O)(=O)c2ccc(Cl)cc2)N1`: the TGI in the test with 786-0 renal, with CCRF-CEM leukemia, in the test with COLO 205 colon, in the test on NCI-H226 lung, in the test with NCI-H460 lung and in the test on NCI/ADR-RES ovarian was greater than 100 µM each time. The TGI with OVCAR-3 ovarian, with OVCAR-4 ovarian, in the test on OVCAR-5 ovarian and in the test on UACC-62 melanoma was greater than 100 µM in each case.
On to `Cc1[nH]c(=O)nc(NNCc2ccc(Cl)cc2)c1C(=O)Nc1ccc(Cl)cc1`, for which the TGI in the test with 786-0 renal, in the test with CCRF-CEM leukemia, in the test with COLO 205 colon, with LOX IMVI melanoma, with NCI-H226 lung and in the test on NCI-H460 lung was greater than 100 µM each time. Further, the TGI with NCI/ADR-RES ovarian, with OVCAR-3 ovarian, with OVCAR-4 ovarian, with OVCAR-5 ovarian and with UACC-62 melanoma was greater than 100 µM each time.
On to `CC(=O)Oc1ccc2c3c1O[C@H]1[C@H](O)CC[C@@]4(O)[C@@H](C2)N(C)CC[C@]314`, for which the TGI in the test on 786-0 renal, with COLO 205 colon, in the test on EKVX NSCLC, in the test with LOX IMVI melanoma, with NCI-H226 lung and in the test on NCI/ADR-RES ovarian was greater than 100 µM each time. Also, the total growth inhibition concentration (TGI) in the test on OVCAR-3 ovarian, in the test on OVCAR-4 ovarian, in the test on OVCAR-5 ovarian and in the test with UACC-62 melanoma was greater than 100 µM throughout.
As to `CCn1cnnc1-c1nsc2ccccc12`, the TGI with CCRF-CEM leukemia, in the test with COLO 205 colon, in the test with EKVX NSCLC, in the test on LOX IMVI melanoma, in the test on NCI-H460 lung and with OVCAR-3 ovarian was greater than 100 µM in each case. The TGI is greater than 100 µM in the test with OVCAR-4 ovarian, 92.2 µM with OVCAR-5 ovarian and greater than 100 µM in the test with UACC-62 melanoma.
For `COc1cccc(C2c3cc4c(cc3OC(Nc3ccccc3)C2C)OCO4)c1OC` (configuration not stated), the TGI was 22.9 µM in the test with 786-0 renal; 27.6 µM with CCRF-CEM leukemia; 19.7 µM in the test with COLO 205 colon; greater than 100 µM in the test with EKVX NSCLC; greater than 100 µM in the test with LOX IMVI melanoma; 12.1 µM with NCI-H226 lung. Moreover, the TGI in the test on NCI-H460 lung, in the test with OVCAR-3 ovarian, with OVCAR-5 ovarian and in the test with UACC-62 melanoma was greater than 100 µM each time.
Take `N#Cc1c(-c2ccccc2)c(CN2CCCCC2)c(=O)n2c1[nH]c1ccccc12`: the TGI in the test with 786-0 renal is 95.6 µM; in the test on CCRF-CEM leukemia it was greater than 100 µM; with COLO 205 colon, 64 µM; in the test with LOX IMVI melanoma it was 50.8 µM; in the test on NCI-H226 lung it was greater than 100 µM; in the test with NCI-H460 lung it was greater than 100 µM. The TGI with NCI/ADR-RES ovarian was greater than 100 µM; with OVCAR-3 ovarian, 58.3 µM; in the test with OVCAR-4 ovarian, greater than 100 µM; with OVCAR-5 ovarian, greater than 100 µM.
On to `CCC1NC(N=Nc2ccc([N+](=O)[O-])cc2)(P(=O)(OC(C)C)OC(C)C)OC1=O` (configuration not stated), for which the TGI in the test on CCRF-CEM leukemia, in the test on COLO 205 colon, in the test on EKVX NSCLC, in the test with OVCAR-3 ovarian, with OVCAR-4 ovarian and in the test with OVCAR-5 ovarian was greater than 100 µM in each case. The TGI in the test with UACC-62 melanoma is greater than 100 µM.
